Molecules are shown by their SMILES.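 Method: 48-hour compound exposure of cells in 96-well plates, five concentrations, linear interpolation of endpoints. TGI denotes the concentration required for complete inhibition of growth.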

Some test systems named below: 786-0 renal; A498 renal; ACHN renal; CAKI-1 renal; COLO 205 colon; HCC-2998 colon; HCT-15 colon; HS 578T breast; KM12 colon; LOX IMVI melanoma; MOLT-4 leukemia; NCI-H226 lung; OVCAR-4 ovarian; PC-3 prostate; SK-MEL-2 melanoma; SK-MEL-28 melanoma; SNB-19 CNS; RPMI-8226 leukemia; SNB-75 CNS.
Common to all, as to test: NCI anticancer screen, dose series, 48 h

For `Oc1[nH]c2ccccc2c1N=NC(=S)Nc1cccc(Cl)c1`, the TGI in the test on 786-0 renal was 27.6 µM; in the test with A498 renal it was 24.7 µM; with ACHN renal it was 28.8 µM; with CAKI-1 renal, 44.9 µM; in the test on COLO 205 colon, above 100 µM; with HCC-2998 colon, above 100 µM. Besides, the TGI was above 100 µM with HCT-15 colon; above 100 µM in the test with HS 578T breast; 58.8 µM in the test on KM12 colon; 33.4 µM with LOX IMVI melanoma; 10.8 µM in the test with MOLT-4 leukemia; 55.2 µM in the test with NCI-H226 lung. For the same molecule, the TGI was 59.4 µM in the test on OVCAR-4 ovarian; above 100 µM with PC-3 prostate; 89.6 µM with SK-MEL-2 melanoma; above 100 µM in the test with SK-MEL-28 melanoma; above 100 µM with SNB-19 CNS.

For the molecule `O=C(O)[C@@H]1CCS(=O)(=O)N1`, the TGI with 786-0 renal, with A498 renal, in the test with ACHN renal, with CAKI-1 renal, in the test on COLO 205 colon and with HCC-2998 colon was above 100 µM each time. The TGI in the test with HCT-15 colon, in the test with KM12 colon, in the test with LOX IMVI melanoma, in the test on MOLT-4 leukemia, in the test on OVCAR-4 ovarian and in the test with PC-3 prostate was above 100 µM throughout. Further, the TGI in the test on SK-MEL-2 melanoma, in the test on SK-MEL-28 melanoma and with SNB-19 CNS was above 100 µM each time.

As to `CC(CO)(CO)N1C(=O)C2C3C=CC(C3)C2C1=O` (stereo not given), the TGI in the test with 786-0 renal, with A498 renal, in the test with ACHN renal, in the test on CAKI-1 renal, in the test with COLO 205 colon and in the test with HCC-2998 colon was above 100 µM throughout. Besides, the TGI with HCT-15 colon, in the test with HS 578T breast, in the test on KM12 colon, with LOX IMVI melanoma, in the test on MOLT-4 leukemia and with NCI-H226 lung was above 100 µM in each case. Also, the TGI with OVCAR-4 ovarian, in the test with PC-3 prostate, in the test with RPMI-8226 leukemia, with SK-MEL-2 melanoma, in the test on SK-MEL-28 melanoma and in the test with SNB-19 CNS was above 100 µM in each case. Further, in the test on SNB-75 CNS, the TGI is above 100 µM.

In the case of `O=Cc1[nH]c(=O)[nH]c(=O)c1C(=O)O`, the TGI in the test with 786-0 renal, in the test with ACHN renal, in the test with CAKI-1 renal, in the test with COLO 205 colon, in the test on HCC-2998 colon and with HCT-15 colon was above 100 µM throughout. Besides, the TGI with HS 578T breast, in the test with KM12 colon, in the test on LOX IMVI melanoma, with MOLT-4 leukemia, in the test on NCI-H226 lung and with OVCAR-4 ovarian was above 100 µM throughout. The TGI with PC-3 prostate, in the test on RPMI-8226 leukemia, in the test with SK-MEL-2 melanoma, in the test with SK-MEL-28 melanoma, in the test with SNB-19 CNS and in the test on SNB-75 CNS was above 100 µM in each case.

In the case of `N#Cc1c2ccccc2cn1-c1ccc(F)cc1`, the TGI was above 100 µM in the test with 786-0 renal; above 100 µM with ACHN renal; above 100 µM in the test with CAKI-1 renal; 61.7 µM in the test with COLO 205 colon; above 100 µM in the test with HCC-2998 colon; 97.4 µM in the test with KM12 colon. Moreover, the TGI is 90.5 µM with MOLT-4 leukemia; 55.6 µM in the test on NCI-H226 lung; above 100 µM in the test with OVCAR-4 ovarian; 61.2 µM with RPMI-8226 leukemia; above 100 µM in the test with SK-MEL-28 melanoma; above 100 µM in the test with SNB-19 CNS. This molecule had a TGI in the test with SNB-75 CNS of 18.9 µM.

As for `S=c1sc2c(Cl)nc(Cl)nc2n1-c1ccccc1`, the TGI in the test with 786-0 renal, in the test on A498 renal, in the test with ACHN renal, in the test on CAKI-1 renal, with COLO 205 colon and in the test with HCC-2998 colon was above 100 µM throughout. For the same molecule, the TGI in the test on HCT-15 colon is 32 µM; in the test on KM12 colon, above 100 µM; in the test on LOX IMVI melanoma it was above 100 µM; in the test with MOLT-4 leukemia, above 100 µM; with NCI-H226 lung, above 100 µM; in the test on OVCAR-4 ovarian, above 100 µM. Moreover, the TGI in the test with RPMI-8226 leukemia was above 100 µM; with SK-MEL-2 melanoma it was above 100 µM; with SK-MEL-28 melanoma, 29 µM; with SNB-19 CNS, above 100 µM; with SNB-75 CNS, above 100 µM.

As to `COc1ccc(/C=C2\N=C(SC)N(CN3CCOCC3)C2=O)cc1`, the TGI in the test with 786-0 renal, in the test on A498 renal, in the test with ACHN renal, in the test with COLO 205 colon, with HCT-15 colon and with HS 578T breast was above 100 µM in each case. Besides, the TGI with KM12 colon was above 100 µM; in the test with LOX IMVI melanoma, above 100 µM; in the test with MOLT-4 leukemia, above 100 µM; with NCI-H226 lung, above 100 µM; with OVCAR-4 ovarian it was 78.2 µM; in the test with PC-3 prostate, above 100 µM. Also, the TGI in the test with RPMI-8226 leukemia, with SK-MEL-2 melanoma, in the test on SK-MEL-28 melanoma, with SNB-19 CNS and in the test on SNB-75 CNS was above 100 µM throughout.

With `O=C(Nc1nc(C23CC4CC(CC(C4)C2)C3)cs1)c1cc2ccc(O)cc2oc1=O`, the TGI was 23.8 µM with 786-0 renal; 28.6 µM in the test with A498 renal; 64.3 µM with ACHN renal; above 100 µM in the test with CAKI-1 renal; 50.4 µM with COLO 205 colon; 43.3 µM in the test with HCC-2998 colon. Also, the TGI was determined as 47.6 µM with HCT-15 colon; 37.8 µM in the test with HS 578T breast; 29.9 µM in the test with KM12 colon; 22.2 µM in the test on LOX IMVI melanoma; 38.1 µM in the test on MOLT-4 leukemia; 49 µM in the test with NCI-H226 lung. In addition, the TGI turned out to be 44 µM in the test on OVCAR-4 ovarian; 35.4 µM in the test with PC-3 prostate; 32.6 µM in the test on RPMI-8226 leukemia; 47 µM in the test with SK-MEL-28 melanoma; 80.6 µM with SNB-19 CNS.

With `CC(=O)Oc1ccc2c(C)cc(=O)oc2c1OC(C)=O`, the TGI in the test on 786-0 renal was above 100 µM; with A498 renal it was 76.5 µM; in the test on ACHN renal, above 100 µM; with COLO 205 colon, above 100 µM; in the test on HCT-15 colon it was 81.6 µM; in the test with HS 578T breast it was 99.5 µM. Moreover, the TGI with KM12 colon, in the test with LOX IMVI melanoma, in the test with MOLT-4 leukemia, in the test with NCI-H226 lung, in the test on OVCAR-4 ovarian and in the test with PC-3 prostate was above 100 µM in each case. For the same molecule, the TGI was 89.9 µM in the test with RPMI-8226 leukemia; above 100 µM in the test with SK-MEL-2 melanoma; above 100 µM in the test on SK-MEL-28 melanoma; above 100 µM in the test on SNB-19 CNS; above 100 µM with SNB-75 CNS.
